The record followed here is the METLIN SMRT retention time set (Domingo-Almenara et al. 2019).

The nature of the data set: gradient 5% acetonitrile 3 min, to 50% in 2 min, to 85% in 15 min, held 3 min, 100 µL/min. To be noted: column: Zorbax Extend-C18 2.1 x 50 mm; eluents: water / acetonitrile, 0.1% formic acid. In short, it runs like this:
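Each retention time is based on an adduct peak selected computationally and verified by manual inspection. Measurements used HPLC–quadrupole time-of-flight mass spectrometry in positive and negative ionization mode on mixtures of ~100 pure standards. Chromatography ran on a Zorbax Extend-C18 column (2.1 × 50 mm, 1.8 μm) at 100 μL/min with water and acetonitrile, each containing 0.1% formic acid, and dead and dwell volumes of 40 μL and 900 μL.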
Take `O=C(Nc1cnn(-c2ncc(N3CCSCC3)cn2)c1)NC1CCCC1`: the RP-LC retention time worked out at 848 s.

As to `CC(C)CCNC(=O)C1CCCN(c2nc3ccsc3c(=O)n2Cc2ccccc2)C1` (centres undefined), the RP-LC retention time is 955 s.

For the compound `CCc1cccc(NC(=O)Cn2nc3c(Sc4ccccc4)nccn3c2=O)c1`, the RP-LC retention time was 1010 s.

`O=C(Cc1ccccc1)NCc1nc(-c2cccc(-c3ccn[nH]3)c2)no1` showed an RP-LC retention time of 898 s.

For `COc1ccc(-c2ncc3c(n2)CCN(C(=O)Cc2ccc(OC)cc2Cl)C3)cc1`, the RP-LC retention time was found to be 987 s.

For the compound `CC1CCN(S(=O)(=O)c2ccc3nn(Cc4ccccc4)c(=O)n3c2)CC1`, the RP-LC retention time was 893 s.

As for `COc1cc(NC(=O)N2CCC(N3CCN(Cc4ccc(C)cc4)C(=O)C3=O)CC2)cc(OC)c1`, the RP-LC retention time is 758 s.

Regarding `CC(C)N1CCN(c2ncc(C(=O)NCc3ccccc3)c(N)n2)CC1`, the RP-LC retention time amounted to 595 s.

In the case of `Cc1c(C(=O)NC2CC2)cnn1-c1cc(-c2nc(C(C)(C)C)no2)ccn1`, the RP-LC retention time stood at 668 s.

Turning to `Cc1nc(C)c(CCNS(=O)(=O)c2cc(Cl)ccc2Cl)s1`, the RP-LC retention time was determined as 683 s.

In the case of `O=c1ccc(N2CCCN(S(=O)(=O)c3ccccc3F)CC2)nn1-c1ccc(Cl)cc1`, the RP-LC retention time was found to be 925 s.

For the compound `Cc1nc2c(ccc3nc(NC(=O)c4cccc(F)c4)sc32)s1`, the RP-LC retention time was 893 s.

`COc1ccc(CNC(=O)Cn2ncc3c(c2=O)N(C2CC2)C(=O)CS3)cc1` yielded an RP-LC retention time of 667 s.

The compound `Cc1ccc(S(=O)(=O)N2CCCC(Cn3c(C)nc4cccnc43)C2)cc1` (centres undefined) returned an RP-LC retention time of 707 s.

Consider `CC(=O)N1c2ccc(S(=O)(=O)N3CCCCC3)cc2CC1C(=O)NCCN1CCCCC1` (centres undefined), for which the RP-LC retention time stood at 626 s.

As to `CCN1c2ccc(C)cc2C(=O)NC12CCN(C(=O)c1ccc(C)cc1C)CC2`, the RP-LC retention time is 902 s.

Consider `COc1cc(Cl)ccc1C(=O)N1CCN=C1N1CCN(c2ccccc2F)CC1`, for which the RP-LC retention time worked out at 749 s.

As for `COc1ccccc1NC(=O)N1CCC2(CC1)NC(=O)c1ccc(F)cc1N2C`, the RP-LC retention time came out at 745 s.

Take `COc1ccc(S(=O)(=O)N2CCCC(C(=O)NC(C)C)C2)cc1OC` (centres undefined): the RP-LC retention time was determined as 720 s.

On to `Cc1cccc2nc(-c3ccc(N4CCOCC4)cc3)c(Nc3ccc4c(c3)OCO4)n12`, for which the RP-LC retention time was 676 s.

`COc1ccc(C2CCCN2C(=O)c2nn(C)cc2Cl)cc1` (centres undefined) yielded an RP-LC retention time of 770 s.

For the compound `Cc1ccc(CNC(=O)C2(C)CCCN(C(=O)NCCc3ccccc3)C2)cc1` (centres undefined), the RP-LC retention time came to 912 s.

Compound `O=C(NC1(c2nc(-c3cccnc3)no2)CCCCC1)c1ccc[nH]c1=O` showed an RP-LC retention time of 667 s.

`O=C(CN1CCN(Cc2cccc(Cl)c2)C1=O)NC1CC1`: the RP-LC retention time amounted to 683 s.

Regarding `CN(C)CCNC(=O)C1CCN(c2nc3ccc(-c4cccc(F)c4)nc3s2)CC1`, the RP-LC retention time is 691 s.

Turning to `O=C(Nc1nc2c(s1)CCCC2C(=O)NCc1ccco1)c1ccc2c(c1)OCO2` (centres undefined), the RP-LC retention time worked out at 789 s.

`CCCN1C(=O)COc2ccc(-c3noc(C(C)NC(=O)c4ccccc4)n3)cc21` (centres undefined) showed an RP-LC retention time of 900 s.

`Cc1ccc(Nc2nc(C)cc(N3CCN(S(=O)(=O)c4ccc5c(c4)OCCO5)CC3)n2)cc1` came in with an RP-LC retention time of 760 s.

`CN(C)C(=O)c1cc2c(s1)CCC(C(=O)N1CCOCC1)C2` (centres undefined) returned an RP-LC retention time of 781 s.

As for `Cc1cc(C)cc(Nc2c(-c3cccc(O)c3)nc3cnccn23)c1`, the RP-LC retention time was found to be 763 s.

`COCc1cc(=O)n(CC(=O)NCc2ccc(F)cc2F)c(N)n1`: the RP-LC retention time amounted to 603 s.

For `Cc1cc2c(=O)n(CC(=O)Nc3ccc(F)cc3)c3cccnc3n2n1`, the RP-LC retention time amounted to 689 s.

`COc1ccc(-c2nnc(SCc3cc(=O)n4ccsc4n3)o2)cc1` displayed an RP-LC retention time of 722 s.

As to `CCn1cc(-c2nc(C(=O)Nc3ccc(F)c(F)c3)cs2)c2cccnc21`, the RP-LC retention time came to 940 s.

In the case of `CCn1c(=O)sc2cc(S(=O)(=O)N3CCC(C(=O)Nc4ccc(F)cc4F)CC3)ccc21`, the RP-LC retention time turned out to be 921 s.

On to `CCn1cnc2ccc(C(=O)NC3CC3)cc2c1=O`, for which the RP-LC retention time turned out to be 714 s.

`O=C(CSc1n[nH]c(-c2ccccc2)n1)NC1CCCCC1` gave an RP-LC retention time of 784 s.

Compound `Cc1nnc2cc(N3CCN(Cc4ccc(C(C)C)cc4)CC3)cnn12` came in with an RP-LC retention time of 613 s.

In turn, `Cc1cc(-c2nnc(C3CC3)o2)c(C)n1CC(=O)NCc1cc(F)cc(F)c1` had an RP-LC retention time of 813 s.

The compound `CC(C)Cn1c(CCNC(=O)c2ccc(F)cc2)nc2cccnc21` registered an RP-LC retention time of 700 s.

Compound `O=C(NCCn1c(=O)n(Cc2ccc(F)cc2)c2cccnc21)c1nccc2ccccc12` returned an RP-LC retention time of 840 s.

`O=C(NCC1(c2cccs2)CCOCC1)C(=O)NC1CCCC1` registered an RP-LC retention time of 775 s.

On to `COc1cc(NC(=O)C2CCCN(C(=O)c3cc(-c4ccncc4)n[nH]3)C2)cc(OC)c1OC` (centres undefined), for which the RP-LC retention time was determined as 591 s.

Consider `C=C1C(=O)C2=CC1CCC(=O)C1(C)CCC(OC(C)=O)C(C)(C)C1CC2O` (centres undefined), for which the RP-LC retention time came to 718 s.

The compound `Cc1ccc(NC(=O)N(C)CC2CCOCC2)cc1C` gave an RP-LC retention time of 795 s.

For the compound `Cc1ccccc1CN1CCc2nc(N3CCN(c4ccccc4F)CC3)ncc2C1`, the RP-LC retention time was 796 s.

Compound `CCCCN1C(=O)c2cc(S(=O)(=O)N3CCc4ccccc43)ccc2Oc2cccnc21` registered an RP-LC retention time of 1260 s.

Take `c1ccc(-c2nc3cc(-c4noc(C5CC5)n4)ccc3o2)cc1`: the RP-LC retention time stood at 1230 s.

The compound `CCOC(=O)CNC(=O)NC(C)C(=O)N1CCc2ccccc21` (centres undefined) came in with an RP-LC retention time of 687 s.

`Cc1ccc2c(c1)N(C(=O)Cn1nc3c4ccccc4ncn3c1=O)CCO2`: the RP-LC retention time stood at 730 s.

The compound `O=C(Nc1nc(-c2ccccc2)cs1)c1sc2cc([N+](=O)[O-])ccc2c1Cl` returned an RP-LC retention time of 1260 s.

As to `CCCC(C)NC(=O)c1cc2c(s1)N(C)CCCC2` (centres undefined), the RP-LC retention time came out at 974 s.

For `CC(C)c1nc(C2CN(C(=O)Nc3cc(F)cc(F)c3)C2)n(C)n1`, the RP-LC retention time was determined as 717 s.

On to `O=C(Cc1noc2ccccc12)N1CCN(c2cc(-c3ccccc3)ncn2)CC1`, for which the RP-LC retention time worked out at 745 s.

`Cc1ccc(-c2cn3c(CC(=O)Nc4ccc(C#N)cc4)csc3n2)cc1C` displayed an RP-LC retention time of 821 s.

`Cn1nc2n(c1=O)CCN(S(=O)(=O)c1cccc3cccnc13)CC2` yielded an RP-LC retention time of 649 s.

`CC(=O)c1ccc(Oc2ccc(/C(C)=N\N=C(N)N)cc2)cc1` gave an RP-LC retention time of 674 s.

Take `COc1ccccc1C1(CNC(=O)Nc2ccccc2F)CCOCC1`: the RP-LC retention time came out at 810 s.

`O=C(NCCS(=O)(=O)N1CCc2ccccc2C1)C1CC(=O)N(c2ccc(F)cc2)C1` (centres undefined) displayed an RP-LC retention time of 732 s.

With `O=C1CCCc2cc(S(=O)(=O)N3CCC(C(=O)N4CCC5(CC4)OCCO5)CC3)ccc2N1`, the RP-LC retention time amounted to 662 s.

As to `COC(=O)N1CCc2ccc(F)cc2C1C(=O)Nc1ccc(OC)c(Cl)c1` (centres undefined), the RP-LC retention time is 874 s.

`COc1cccc(CN2CCn3c(nnc3[C@@H]3C[C@@H](O)CN3C)C2)c1` had an RP-LC retention time of 574 s.

For the compound `Cc1nc2c(sc3nc(-c4ccccc4)ccc32)c(=O)n1CC(=O)NCCc1ccc(Cl)cc1`, the RP-LC retention time was determined as 1080 s.

`Cc1cc2c(N3CCCC(C(=O)N4CCN(c5ccc(Cl)cc5)CC4)C3)nccc2s1` (centres undefined) yielded an RP-LC retention time of 799 s.

The compound `CNC(=O)Nc1cc(C)n(Cc2ccccc2)n1` yielded an RP-LC retention time of 738 s.

In turn, `CCN(CC)C(=O)C1CCCN(C(=O)c2nn(C)c3c2CN(C(=O)c2ccco2)CC3)C1` (centres undefined) registered an RP-LC retention time of 658 s.

The compound `COc1ccc(-n2nc(C(=O)N3CCC(C(N)=O)CC3)c(=O)cc2OC)cc1OC` displayed an RP-LC retention time of 588 s.

As to `Cc1ccccc1-c1nc(C2CCN(S(=O)(=O)c3ccc(F)cc3)CC2)no1`, the RP-LC retention time worked out at 1180 s.

`COc1ccc(Cc2nnc3sc(-c4ccccc4OC)nn23)cc1` showed an RP-LC retention time of 976 s.

Regarding `Cc1c(CN2CCC(N(C(=O)NCCc3ccccc3)C3CCOCC3)CC2)cnn1C`, the RP-LC retention time worked out at 627 s.

`Cc1ccc(C)c(Cn2nnc(C(=O)O)c2C)c1` registered an RP-LC retention time of 783 s.

Take `CCn1cc(CN2CC(F)(F)C[C@H]2COc2ccncc2)c2ccccc21`: the RP-LC retention time came to 670 s.

With `O=C(Cn1c(=O)oc2ccccc21)N1CCc2nn(CC3CC3)c(=O)n2CC1`, the RP-LC retention time was found to be 682 s.

Compound `Cc1ccsc1C(=O)Nc1cnn(-c2ncncc2N2CCC(C)CC2)c1` gave an RP-LC retention time of 918 s.

`CCCNC(=O)C1CCCN(c2nc3ncn(CC(=O)Nc4ccc(F)c(F)c4)c(=O)c3s2)C1` (centres undefined) had an RP-LC retention time of 708 s.

`CC(C)(C)c1csc(-c2csc(S(=O)(=O)NCc3ccc(F)cc3F)c2)n1`: the RP-LC retention time is 1220 s.

For the compound `COc1cccc(-c2noc(Cn3ccn4nc(-c5ccc(F)cc5)cc4c3=O)n2)c1OC`, the RP-LC retention time stood at 1010 s.

The compound `Cc1ccc(CN2CCN(C3CCN(S(=O)(=O)c4ccc(C)c(Cl)c4)CC3)C(=O)C2=O)cc1` yielded an RP-LC retention time of 990 s.

Compound `CCOC(=O)c1c(C)oc2nc(C)nc(N3CCN(c4ccc(OC)cc4)CC3)c12` gave an RP-LC retention time of 979 s.
